Here are results for 24 molecules from US11560373B2, “Compounds and their use as PDE4 activators” (Mironid Limited, priority 2018, dated 2023).

The first assay deals with T1, PDE4D5 (Homo sapiens, UniProt Q08499).
T1 construct: stably expressed the full-length human PDE4D5, PDE4B1 and PDE4A4 long isoforms; made in house
T1 sequence (Q08499 1-745 isoform Q08499-6): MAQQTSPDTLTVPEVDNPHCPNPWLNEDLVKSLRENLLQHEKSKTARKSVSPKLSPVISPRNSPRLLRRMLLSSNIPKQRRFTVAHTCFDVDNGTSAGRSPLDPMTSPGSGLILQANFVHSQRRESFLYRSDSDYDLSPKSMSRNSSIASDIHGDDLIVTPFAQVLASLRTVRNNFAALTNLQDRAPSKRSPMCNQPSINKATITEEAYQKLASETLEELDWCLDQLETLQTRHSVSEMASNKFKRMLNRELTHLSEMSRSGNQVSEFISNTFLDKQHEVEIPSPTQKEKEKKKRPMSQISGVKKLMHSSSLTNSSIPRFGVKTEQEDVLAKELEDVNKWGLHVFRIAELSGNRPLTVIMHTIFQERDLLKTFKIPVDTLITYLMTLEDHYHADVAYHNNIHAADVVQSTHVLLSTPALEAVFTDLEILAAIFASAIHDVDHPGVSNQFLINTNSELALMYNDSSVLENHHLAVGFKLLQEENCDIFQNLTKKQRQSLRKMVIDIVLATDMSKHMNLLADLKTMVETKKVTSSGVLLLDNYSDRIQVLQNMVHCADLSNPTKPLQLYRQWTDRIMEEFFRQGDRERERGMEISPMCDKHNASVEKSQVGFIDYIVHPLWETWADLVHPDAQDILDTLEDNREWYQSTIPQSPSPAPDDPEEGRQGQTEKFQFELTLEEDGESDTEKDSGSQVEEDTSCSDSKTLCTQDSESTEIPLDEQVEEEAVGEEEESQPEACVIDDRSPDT
Briefly: PDE assay, [3H]cAMP hydrolysis by HEK-PDE4D5 cell lysate cytosol fraction. Type of assay: biochemical. The settings on record: 30 μM; mean % increase in counts over basal activity. As for the experimental part: HEK 293 cells were transfected with pDEST™ PDE4 expression vectors using Lipofectamine LTX/Plus reagent (Invitrogen) as outlined by the manufacturer and clonal isolates expanded to obtain cell lines that stably expressed the full-length human PDE4D5, PDE4B1 and PDE4A4 long isoforms and the full length human PDE4B2 short isoform. These were called the HEK-PDE4D5, HEK-PDE4B1, HEK-PDE4A4 and HEK-PDE4B2 cell lines, respectively.
HEK-PDE4D5 cells were seeded out in 100 mm plates and incubated at 37° C. in an atmosphere of 5% CO2, 95% air. Cell lysates were prepared using KHEM buffer [50 mM KCl, 10 mM EGTA, 50 mM HEPES (pH 7.2), 1.92 mM MgCl2].
To prepare the cell lysates, the 100 mm plates containing the cells were placed on ice and washed with ice-cold PBS (phosphate buffered saline, pH 7.4). KHEM buffer (500 μl) was added to the cells. Cells were then scraped off the plate and triturated using a needle (BD Microlance™ 0.8, 40 mm). The lysed cells were then centrifuged at 2000 rpm for 10 minutes to remove cell debris and the supernatant (cell lysate containing recombinant PDE4D5) was transferred to a fresh tube and kept on ice.
The cell lysate containing recombinant PDE4D5 was transferred into a centrifuge tube and placed into an ultracentrifuge (BECKMAN COULTER) and spun at high speed (100,000 g) for 30 minutes at 4° C. The cytosol fraction was then collected and its protein amount determined using a BCA protein assay.
PDE assays were performed in thin walled V-bottomed 96-well plates. The assays were performed at a final concentration of 10 mM Tris/5 mM MgCl2 plus PDE4D5 cell lysate cytosol fraction, containing over-expressed PDE4D5, with and without test compound. The lysate/compound mix were incubated together for 15 min at room temperature on an orbital shaker prior to addition of [^3H] cAMP (final concentration 1 μM [^3H] cAMP; Perkin Elmer) to a final volume of 50 μl per reaction. The reactions were then incubated for 10 minutes at 30° C., terminated by heating for 2 min at 95° C. and allowed to cool. Snake venom (12.5 μl of 1 mg/ml; Crotalus atrox, Sigma) was then added and the plates were agitated and incubated for a further 15 minutes at 30° C. Dowex ion exchange resin (Sigma, chloride form, 200-400 mesh; 200 μl; prepared as a 1:1 Dowex: water stock, thoroughly re-suspended and diluted 2:1 with ethanol) was then added to each well and the plates incubated for 15 min at room temperature on an orbital shaker ensuring sufficient agitation for resin suspension (550 RPM). The reaction mixture was then transferred to a 96 well filter plate (Millipore; […] pore size) and filtered into a receiving 96-well plate to remove the dowex suspension. 30 μL of the filtered solution was then transferred to the wells of an Opti-plate (Perkin Elmer) 96 well assay plate and 120 μl of Microscint 40 scintillation fluid was added. The plate was then placed on an orbital shaker for 10 min at high speed (900 RPM) to mix the sample with scintillation fluid prior to quantitation using a plate based scintillation counter (Top-Count).
The % increase in counts in the presence of test compound at a particular concentration indicates the % increase in enzyme activity at that concentration.
For `CCn1nc(-c2ccc(OC(F)(F)F)cc2)nc1CC(=O)NCc1cc(Cl)cc(Cl)c1` [Example 28, N-[(3,5-Dichlorophenyl)methyl]-2-{1-ethyl-3-[4-(trifluoromethoxy)phenyl]-1H-1,2,4-triazol-5-yl}acetamide], the activation at 30 µM turned out to be 46.3%.
`CCn1nc(-c2ccc(Cl)c(F)c2)nc1CC(=O)NCc1ccnc(C(F)(F)F)c1` [Example 83, 2-[3-(4-Chloro-3-fluorophenyl)-1-ethyl-1H-1,2,4-triazol-5-yl]-N-{[2-(trifluoromethyl)pyridin-4-yl]methyl}acetamide] gave an activation at 30 µM of 89.6%.
On the same count and under the same terms, the same measure for `CCn1nc(-c2ccc(Cl)c(F)c2)nc1CC(=O)NCc1ccc2[nH]ncc2c1` [Example 7, 2-[3-(4-Chloro-3-fluorophenyl)-1-ethyl-1H-1,2,4-triazol-5-yl]-N-[(1H-indazol-5-yl)methyl]acetamide]: 94.1%.
`CCn1nc(-c2ccc(Cl)c(OC(C)C)c2)nc1CC(=O)NCc1ccc2[nH]ncc2c1` [Example 38, 2-[3-(4-Chloro-3-isopropyloxyphenyl)-1-ethyl-1H-1,2,4-triazol-5-yl]-N-[(1H-indazol-5-yl)methyl]acetamide] gave an activation at 30 µM of 81.6%.
For the molecule `Cn1nc(-c2ccc(Cl)c(F)c2)nc1CC(=O)NCc1cccc(F)c1` [Example 20, 2-[3-(4-Chloro-3-fluorophenyl)-1-methyl-1H-1,2,4-triazol-5-yl]-N-[(3-fluorophenyl)methyl]acetamide], the activation at 30 µM is 78.6%.
`CCn1nc(-c2ccc(Cl)c(OC(C)C)c2)nc1CC(=O)NCc1cc(C)cc(C)n1` [Example 82, 2-[3-(4-Chloro-3-isopropyloxyphenyl)-1-ethyl-1H-1,2,4-triazol-5-yl]-N-[(4,6-dimethylpyridin-2-yl)methyl]acetamide] showed an activation at 30 µM of 34.3%.
Take `CCn1nc(-c2ccc(Cl)c(F)c2)nc1C(C)C(=O)NCc1cccc(F)c1` (stereo not shown) [Example 24, 2-[3-(4-Chloro-3-fluorophenyl)-1-ethyl-1H-1,2,4-triazol-5-yl]-N-[(3-fluorophenyl)methyl]propanamide]: the activation at 30 µM stood at 72.2%.
With `O=C(Cc1nc(-c2ccc(Cl)c(F)c2)nn1CC1CC1)NCc1ccc2[nH]ncc2c1` [Example 27, 2-[3-(4-Chloro-3-fluorophenyl)-1-(cyclopropylmethyl)-1H-1,2,4-triazol-5-yl]-N-[(1H-indazol-5-yl)methyl]acetamide], the activation at 30 µM worked out at 106%.
`CCn1nc(-c2ccc(Cl)c(F)c2)nc1CC(=O)NCc1ccc(OC)nc1` [Example 17, 2-[3-(4-Chloro-3-fluorophenyl)-1-ethyl-1H-1,2,4-triazol-5-yl]-N-[(6-methoxypyridin-3-yl)methyl]acetamide] returned an activation at 30 µM of 26.8%.
For `CCOC(=O)CCCn1nc(-c2ccc(Cl)c(F)c2)nc1CC(=O)NCc1cc(Cl)cc(Cl)c1` [Example 56, Ethyl 4-[3-(4-chloro-3-fluorophenyl)-5-({[(3,5-dichlorophenyl)methyl]carbamoyl}methyl)-1H-1,2,4-triazol-1-yl]butanoate], the activation at 30 µM stood at 155%.
Molecule `CCn1nc(-c2ccc(Cl)c(F)c2)nc1CC(=O)NCc1cccc(F)c1F` [Example 13, 2-[3-(4-Chloro-3-fluorophenyl)-1-ethyl-1H-1,2,4-triazol-5-yl]-N-[(2,3-difluorophenyl)methyl]acetamide] had an activation at 30 µM of 28.4%.
In turn, `CCn1nc(-c2ccc(Cl)c(OC(C)C)c2)nc1CC(=O)NCc1cc(C)nc(C)c1` [Example 35, 2-[3-(4-Chloro-3-isopropyloxyphenyl)-1-ethyl-1H-1,2,4-triazol-5-yl]-N-[(2,6-dimethylpyridin-4-yl)methyl]acetamide] registered an activation at 30 µM of 28.5%.
As to `CCn1nc(-c2ccc(Cl)c(OC(C)C)c2)nc1CC(=O)NCc1cccc(C#N)c1` [Example 37, 2-[3-(4-Chloro-3-isopropyloxyphenyl)-1-ethyl-1H-1,2,4-triazol-5-yl]-N-[(3-cyanophenyl)methyl]acetamide], the activation at 30 µM stood at 40.2%.
For the molecule `CCn1nc(-c2ccc(Cl)c(F)c2)nc1CC(=O)N[C@H]1C[C@H](O)c2ccccc21` [Example 68, 2-[3-(4-Chloro-3-fluorophenyl)-1-ethyl-1H-1,2,4-triazol-5-yl]-N-[(1S,3S)-3-hydroxy-2,3-dihydro-1H-inden-1-yl]acetamide], the activation at 30 µM was 51.3%.
For `CCn1nc(-c2ccc(Cl)c(F)c2)nc1CC(=O)Nc1cnccn1` [Example 8, 2-[3-(4-Chloro-3-fluorophenyl)-1-ethyl-1H-1,2,4-triazol-5-yl]-N-(pyrazin-2-yl)acetamide], the activation at 30 µM was determined as 49.6%.
`CC(C)Oc1cc(-c2nc(CC(=O)N[C@H]3CCc4ccccc43)n(C)n2)ccc1Cl` [Example 44] had an activation at 30 µM of 45%.
On the same count and under the same terms, the same measure for `CCOc1cc(-c2nc(CC(=O)NCc3cc(Cl)cc(Cl)c3)n(CC)n2)ccc1Cl` [Example 32, 2-[3-(4-Chloro-3-ethoxyphenyl)-1-ethyl-1H-1,2,4-triazol-5-yl]-N-[(3,5-dichlorophenyl)methyl]acetamide]: 42.8%.
Same read-out and setting: the value for `CCn1nc(-c2ccc(Cl)c(F)c2)nc1CC(=O)NCc1ccc2[nH]c(=O)[nH]c2c1` [Example 9, 2-[3-(4-Chloro-3-fluorophenyl)-1-ethyl-1H-1,2,4-triazol-5-yl]-N-[(2-oxo-2,3-dihydro-1H-benzo[d]imidazol-5-yl)methyl]acetamide] was 55.6%; that for `CCn1nc(-c2ccc(Cl)c(F)c2)nc1CC(=O)NCc1cc(Cl)cc(Cl)c1` [Example 5, 2-[3-(4-Chloro-3-fluorophenyl)-1-ethyl-1H-1,2,4-triazol-5-yl]-N-(3,5-dichlorobenzyl)acetamide] was 56.1%.
`CCn1nc(-c2ccc(Cl)c(F)c2)nc1CC(=O)NCc1cc(OC)cc(OC)c1` [Example 15, 2-[3-(4-Chloro-3-fluorophenyl)-1-ethyl-1H-1,2,4-triazol-5-yl]-N-[(3,5-dimethoxyphenyl)methyl]acetamide] registered an activation at 30 µM of 61.5%.
Take `CCn1nc(-c2ccc(Cl)c(F)c2)nc1C(F)(F)C(=O)NCc1cc(Cl)cc(Cl)c1` [Example 50, 2-[3-(4-Chloro-3-fluorophenyl)-1-ethyl-1H-1,2,4-triazol-5-yl]-N-[(3,5-dichlorophenyl)methyl]-2,2-difluoroacetamide]: the activation at 30 µM worked out at 36.7%.
With `CCn1nc(-c2ccc(Cl)c(F)c2)nc1CC(=O)NC1Cc2ccccc2C1` [Example 66, 2-[3-(4-Chloro-3-fluorophenyl)-1-ethyl-1H-1,2,4-triazol-5-yl]-N-(2,3-dihydro-1H-inden-2-yl)acetamide], the activation at 30 µM is 92.1%.
The same measure, in the same setting: the same measure for `CCn1nc(-c2ccc(Cl)c(F)c2)nc1CC(=O)N[C@H]1CCOc2ccccc21` [Example 74, 2-[3-(4-Chloro-3-fluorophenyl)-1-ethyl-1H-1,2,4-triazol-5-yl]-N-[(4S)-3,4-dihydro-2H-1-benzopyran-4-yl]acetamide]: 55.3%.
Turning to `CCn1nc(-c2ccc(Cl)c(OC(C)C)c2)nc1CC(=O)N[C@H]1CCc2ccccc21` [Example 36, 2-[3-(4-Chloro-3-isopropyloxyphenyl)-1-ethyl-1H-1,2,4-triazol-5-yl]-N-[(1S)-2,3-dihydro-1H-inden-1-yl]acetamide], the activation at 30 µM is 33%.

The same assay, now with this note: dose response, FIG. 1.
With `CCn1nc(-c2ccc(Cl)c(F)c2)nc1CC(=O)NCc1cc(Cl)cc(Cl)c1` [Example 5, 2-[3-(4-Chloro-3-fluorophenyl)-1-ethyl-1H-1,2,4-triazol-5-yl]-N-(3,5-dichlorobenzyl)acetamide], the “activation of PDE4 long form PDE4D5 (FIG. 1)” value is recorded as “dose-dependent activation”.
